Legend:
[1] = tested on: OVCAR4, OVCAR5 and ID8 cells; test: Cell viability (MTT) assay, ovarian cancer cell lines; assay type: cell-based; conditions: 48 h of treatment
Excerpt: (§1) We tested the relationship between AzPs dose and the viability of human ovarian cancer cell lines and the ID8 murine ovarian cancer cell line.
(§2) FIG. 1A) Lead optimization of SU093 to obtain SU056. FIG. 1B) IC50 values of SU093 and SU056 on various ovarian cancer cells. Clonogenic survival of OC cells treated with SU093 or SU056. […] FIG. 1C) Representative colony formation from respective wells. FIG. 1D) Number of colonies formed after SU093 and SU056 treatment. […] FIG. 1F) Cell cycle distribution of propidium iodide (PI)-stained OVCAR8, SKOV3, and ID8 cells. […] FIG. 1G) Effects of SU093 and SU056 on apoptotic cell death analyzed by Annexin-FITC staining. […] FIG. 1H) Cell migration assay.

OVCAR-8 and ID8 cells = test: Clonogenic assay; assay type: cell-based
Method: as §1
Clonogenic assay: 300 suspended OC cells were plated in each well of 12 well plates (Corning-Costar, #3598) and incubated for 24 h for attachment. The media was replaced after 24 h with media containing a respective concentration of the test compound and incubated for 5-8 days until visible colonies appeared in vehicle-treated wells. Cells were then washed and fixed with 2% paraformaldehyde, followed by washing and staining with 0.5% Crystal violet for 1 h. Cells were de-stained using DI water and allowed to dry. Colonies were counted under the microscope at 100× magnification.
as §2

YB-1 = YB-1 expression in six ovarian cancer cell lines; assay type: cell-based; conditions: 2.5 μM for 12 h; six different OC cell lines
Method: Out of six targets identified, we selected proteins whose thermal shift is above 5° in the presence of SU056 for further study of protein expression after treatment. […] To study the in vivo effects of SU056 treatment, we analyzed ID8 tumor xenograft samples via immunohistochemistry (IHC). […] To identify the broader effects of SU056 on YB-1 and its downstream protein/activity in different ovarian cancer cell lines, we selected six different cell lines and treated them with SU056 (2.5 μM) for 12 h. Cells were analyzed for YB-1 and CD44 expression and Multidrug resistance 1 (MDR1, ABC pump mediated efflux). […] Finally, we tested the time kinetics and dose-dependent effects of SU056 on YB-1 expression. OVCAR4, OVCAR8, and SKOV3 cells were treated with SU056 (1, 2.5, and 5 μM) for 3, 6, 12, and 24 h and YB-1 expression was measured using YB-1 ELISA. […]
Total YB-1 sandwich ELISA: Total YB-1 protein level was analyzed using PathScan® Total YB1 Sandwich ELISA Kit (Cell Signaling, #12543) by following the manufacturer's protocol.
FIGS. 4A-4E: SU056 inhibits YB-1. […] FIG. 4C) Respective OC cells were treated with 2.5 μM SU056 for 12 h and YB-1 & CD44 expression and multidrug resistance activity was measured as described in the ‘method’ section. The % inhibition was calculated and compared to the control for the respective cell line. […]

[2] = tested on: OVCAR8 and SKOV-3 OC cell lines; test: MTT combination study of SU056 and paclitaxel; assay type: cell-based, human; conditions: paclitaxel at 0.1, 0.5, and 1 nM doses
Method: Cell viability assay: Cell viability was assessed using the standard MTT assay protocol. In brief, 5,000 cells were plated in each well of 96 well plates (Corning-Costar, #3598) and allowed to attach for 24 h. Cells were treated with a respective concentration of compounds for respective time points. A stock solution of each compound was prepared in DMSO. DMSO concentration was kept constant and maintained below 0.1%. After each incubation, 50 μL of 0.5 mg/ml MTT solution prepared in 1×PBS was added to each well followed by 1 h incubation at 37° C. and 5% CO2. MTT solution and media were then removed, and MTT formazan crystals were dissolved in 100 μL of DMSO per well. Absorbance at 570 nm for each well was recorded using a multimode plate reader to quantitate MTT crystallization. Each absorbance value was normalized to controls and converted into percent cell viability.
Combination index calculation: The combination index (CI) for paclitaxel and SU093 or SU056 was calculated using the Chou-Talalay Method (Chou, 2010). CI values were computed via CampuSyn software. CI<1, CI=1, and CI>1 indicate the synergistic, additive and antagonistic effect of the combination.
Combination index values for paclitaxel and SU056. […] Scale bar, 250 μm FIG. 7E) Spheroid formation was quantified after 7 days of incubation. […] Tumor sections were stained with Ki67, and slides were scored for K167 staining. […]

[3] = tested on: efflux of paclitaxel in OC cells; test: Paclitaxel efflux assay; assay type: cell-based; conditions: SU056 co-treatment vs only paclitaxel-treated cells
Excerpt: YB-1 is involved in the emergence of cisplatin and taxane drug resistance (Kang et al., 2013, Mo et al., 2016). Therefore, we tested whether SU056 synergizes with chemotherapies such as paclitaxel to modulate YB-1. To measure this, we performed a dose dependent combination study of SU056 and paclitaxel. […] ABCB1/MDR1 drug efflux pumps are also known to play an important downstream role with YB-1 in increased taxol efflux and subsequent TR in cancer. To evaluate whether SU056 affects drug efflux, we used Alexa Fluor-488-tagged paclitaxel to measure taxol efflux in vitro. […] Efflux is primarily driven by the ATP-binding cassette transporters (ABC pumps) present on the cell surface (Genovese et al., 2017). We examined the expression of MDR1 and YB-1 in OVCAR8 cells treated with vehicle, SU056, and paclitaxel combinations via Western blot.
Paclitaxel efflux assay: OC cells were treated with 5 nM Oregon Green™ 488-conjugated paclitaxel (Molecular Probes, #P22310) for 1 h. Cells were washed and incubated in phenol red-free DMEM media supplemented with 10% FBS. After each respective time point (30, 60, 120, 180 minutes), the media was collected and centrifuged to remove floating cells. The fluorescence intensity of efflux paclitaxel in media was read at Ex 496 and Em 524 using a multimode plate reader.
Combination index values for paclitaxel and SU056. […] FIG. 7C) Immunoblotting of YB-1 and MDR1. […]

[4] = tested on: protein translation associated molecules; test: Western blot of translation associated molecules in TNBC cells; assay type: cell-based; conditions: 12 and 24 hr; MDA-MB-231, MDA-MB-468, SUM 159
Method: FIGS. 12A-12C. TNBC cells were treated for 12 and 24 hr and total cell lysate were prepared. SDS-PAGE and western blot analyses were performed for translation associated molecules. Beta-actin were probed to ensure equal protein loading.

## O=C1OCC2=C1C(c1cccc(F)c1)c1cc3c(cc1N2CCO)OCO3 (stereo not drawn) [SU056, 9-(3-fluorophenyl)-5-(2-hydroxyethyl)-6,9-dihydro-[1,3]dioxolo[4,5-g]furo[3,4-b]quinolin-8(5H)-one]
[1]
  decrease of IC50 compared to SU093: up to 2 fold
OVCAR-8 and ID8 cells
  OC colony formation: decreased OC colony formation in a dose-dependent and significant manner
YB-1
  inhibition of YB-1 expression: 28-56%
[2]
  effect on cytotoxic effects of paclitaxel (MTT): significantly potentiates the cytotoxic effects of paclitaxel
[3]
  efflux of Alexa Fluor-488-tagged paclitaxel: significantly inhibits the efflux of paclitaxel
[4]
  protein translation associated molecules (western blot): inhibited the protein translation associated molecules

Reference: US20240016784A1, “Y BOX BINDING PROTEIN 1 INHIBITORS” (Oregon Health & Science University, priority 2020, published 2024)
